Holding throughout (details): Homo sapiens
Assay [1] has as its system A498. Description: In vitro cytotoxic activity against renal (A 498) cancer cell line. It counts as functional.
The subject of assay [2] is DU-145. The experiment in a line: In vitro cytotoxic activity against prostate (DU-145) cancer cell line. It counts as functional.
The test system of assay [3] is M14. The experiment in a line: In vitro cytotoxic activity against melanoma (M 14) cancer cell line. It counts as functional.
For assay [4], the system named is NCI/ADR-RES. Description: In vitro cytotoxic activity against ADR resistant breast cancer (MCF-7-ADR) cell line. In kind it is functional.
The test system of assay [5] is SW-620. Description: In vitro cytotoxic activity against colon (SW 620) cancer cell line. It counts as functional.
The test system of assay [6] is SK-OV-3. The experiment in a line: In vitro cytotoxic activity against Ovarian (SK-OV3) cell line. In kind it is functional.
Assay [7] concerns NCI-H522. Description: In vitro cytotoxic activity against lung (H 522) cancer cell line.

A word on the GI50: it is the concentration giving 50% growth inhibition.

In the case of `COc1cc([C@@H]2c3cc4c(cc3[C@H](O)[C@H]3COC(OCCF)[C@H]23)OCO4)cc(OC)c1OC` (stereo not given in full), the GI50 in assay [1] was 80 µM; in assay [2] it was 80 µM; in assay [3], 60 µM; in assay [4], 50 µM; in assay [5], 70 µM; in assay [6], > 100 µM. Besides, in assay [7], halving of growth (GI50) required 80 µM.
As to `COc1cc([C@@H]2c3cc4c(cc3[C@@H](O)[C@H]3COC(CC(C)=O)[C@@H]23)OCO4)cc(OC)c1O` (stereo not given in full), the GI50 in assay [1] came out at 0.08 µM; in assay [2] it was 0.1 µM; in assay [3], 0.8 µM; in assay [4] it was 0.8 µM; in assay [5], 0.1 µM; in assay [6], 0.3 µM. This compound also came in with a GI50 in assay [7] of 0.8 µM.
Take `COCCOC1OC[C@H]2[C@H]1[C@H](c1cc(OC)c(OC)c(OC)c1)c1cc3c(cc1[C@@H]2O)OCO3` (stereo not given in full): the GI50 is 0.05 µM in assay [1]; 7 µM in assay [2]; > 100 µM in assay [3]; > 100 µM in assay [4]; 80 µM in assay [5]; 20 µM in assay [6]. In assay [7], the GI50 stood at 0.09 µM.
Regarding `COc1cc([C@@H]2c3cc4c(cc3[C@H](O)[C@H]3COC(CCO)[C@H]23)OCO4)cc(OC)c1OC` (stereo not given in full), the GI50 was 0.05 µM in assay [1]; 0.5 µM in assay [2]; > 100 µM in assay [3]; > 100 µM in assay [4]; > 100 µM in assay [5]; 0.8 µM in assay [6]. For the same compound, the 50% growth inhibitory concentration (GI50) in assay [7] stood at 0.05 µM.
In the case of `COC(=O)CC1OC[C@H]2[C@H]1[C@H](c1cc(OC)c(OC)c(OC)c1)c1cc3c(cc1[C@@H]2O)OCO3` (stereo not given in full), the GI50 in assay [1] is < 0.01 µM; in assay [2] it was 60 µM; in assay [3] it was > 100 µM; in assay [4] it was 70 µM; in assay [5] it was 70 µM; in assay [6], 4 µM. In addition, the GI50 in assay [7] came to 8 µM.
Consider `COC(=O)CC1OC[C@H]2[C@H]1[C@H](c1cc(OC)c(O)c(OC)c1)c1cc3c(cc1[C@H]2O)OCO3` (stereo not given in full), for which the GI50 in assay [1] is > 100 µM; in assay [2], > 100 µM; in assay [3] it was > 100 µM; in assay [4], 60 µM; in assay [5], 20 µM; in assay [6], 0.5 µM. Also, growth in assay [7] was halved (GI50) at 9 µM.
Regarding `COc1cc([C@@H]2c3cc4c(cc3[C@H](O)[C@H]3COC(CC(C)=O)[C@H]23)OCO4)cc(OC)c1OC` (stereo not given in full), the GI50 was determined as 0.02 µM in assay [1]; 20 µM in assay [2]; 20 µM in assay [3]; 60 µM in assay [4]; 60 µM in assay [5]; 6 µM in assay [6]. The same compound had a GI50 in assay [7] of 20 µM.
Turning to `COc1cc([C@@H]2c3cc4c(cc3[C@H](O)[C@H]3COC(OCCO)[C@H]23)OCO4)cc(OC)c1OC` (stereo not given in full), the GI50 in assay [1] is 0.01 µM; in assay [2], 20 µM; in assay [3] it was 60 µM; in assay [4], 70 µM; in assay [5], 70 µM; in assay [6], 0.09 µM. In assay [7], this compound yielded a GI50 of 10 µM.
Consider `COc1cc([C@@H]2c3cc4c(cc3[C@@H](O[C@@H]3O[C@@H]5CO[C@@H](C)O[C@H]5[C@H](O)[C@H]3O)[C@H]3COC(=O)[C@H]23)OCO4)cc(OC)c1O` [ETOPOSIDE], for which the GI50 in assay [1] is 8 µM; in assay [2], 2 µM; in assay [3] it was < 0.01 µM; in assay [4], 25 µM; in assay [5], 90 µM; in assay [6], < 0.01 µM. This compound registered a GI50 in assay [7] of 0.9 µM.
Turning to `COc1cc([C@@H]2c3cc4c(cc3[C@H](O)[C@H]3COC(=O)[C@H]23)OCO4)cc(OC)c1OC` [PODOFILOX], the GI50 in assay [1] was 0.08 µM; in assay [2], 0.04 µM; in assay [3], 0.07 µM; in assay [4], 0.6 µM; in assay [5], 2 µM; in assay [6] it was 0.9 µM. For the same compound, in assay [7], the 50% growth inhibitory concentration (GI50) was 0.7 µM.

(Values after ChEMBL document CHEMBL1131813, “9-Deoxopodophyllotoxin derivatives as anti-cancer agents” (1999).)
